From paper PMC6941823, “A dispensable paralog of succinate dehydrogenase subunit C mediates standing resistance towards a subclass of SDHI fungicides in Zymoseptoria tritici” (PLoS Pathogens, 2019)
Where two headings read alike, the source gives them in different places.

Key:
[1] = molecular target: WT-SQR (SDHC), IPO323 mitochondria (Zymoseptoria tritici, UniProt F9X9V6+F9XH52+O42772); experiment: Succinate-quinone (SQR) SDHI sensitivity assay on purified mitochondria, IPO323; assay type: biochemical
Chain of WT-SQR (SDHC), IPO323 mitochondria (F9WWR1 entry or part of it): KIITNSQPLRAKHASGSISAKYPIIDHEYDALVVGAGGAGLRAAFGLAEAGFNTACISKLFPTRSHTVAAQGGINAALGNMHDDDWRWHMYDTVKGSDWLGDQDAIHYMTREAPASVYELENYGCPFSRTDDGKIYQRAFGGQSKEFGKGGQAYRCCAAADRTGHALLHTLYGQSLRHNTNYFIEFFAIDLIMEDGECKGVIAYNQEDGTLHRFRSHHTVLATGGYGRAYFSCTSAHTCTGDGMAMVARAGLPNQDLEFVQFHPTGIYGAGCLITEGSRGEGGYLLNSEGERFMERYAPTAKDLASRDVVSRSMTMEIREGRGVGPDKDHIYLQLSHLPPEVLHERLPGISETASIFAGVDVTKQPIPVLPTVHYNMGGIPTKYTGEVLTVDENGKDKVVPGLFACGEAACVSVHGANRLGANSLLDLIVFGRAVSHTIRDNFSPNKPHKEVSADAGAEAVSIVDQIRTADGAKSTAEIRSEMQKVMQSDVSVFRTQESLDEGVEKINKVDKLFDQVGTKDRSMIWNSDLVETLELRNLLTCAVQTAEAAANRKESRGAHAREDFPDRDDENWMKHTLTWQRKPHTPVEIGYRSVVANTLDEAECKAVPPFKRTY
Chain of WT-SQR (SDHC), IPO323 mitochondria (F9X9V6 entry or part of it): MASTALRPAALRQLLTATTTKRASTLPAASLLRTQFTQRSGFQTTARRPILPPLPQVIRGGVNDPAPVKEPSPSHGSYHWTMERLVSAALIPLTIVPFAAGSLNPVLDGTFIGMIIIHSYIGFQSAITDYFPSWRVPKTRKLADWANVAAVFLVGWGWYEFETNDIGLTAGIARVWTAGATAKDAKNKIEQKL
Chain of WT-SQR (SDHC), IPO323 mitochondria (O42772 19-297): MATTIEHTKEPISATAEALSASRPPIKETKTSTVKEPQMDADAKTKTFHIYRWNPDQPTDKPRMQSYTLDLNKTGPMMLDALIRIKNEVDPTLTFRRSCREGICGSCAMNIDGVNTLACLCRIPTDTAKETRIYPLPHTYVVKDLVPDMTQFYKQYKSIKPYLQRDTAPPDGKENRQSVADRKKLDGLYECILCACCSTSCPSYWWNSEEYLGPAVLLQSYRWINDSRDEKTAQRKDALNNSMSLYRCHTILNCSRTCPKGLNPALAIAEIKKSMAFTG
Chain of WT-SQR (SDHC), IPO323 mitochondria (F9XH52 entry or part of it): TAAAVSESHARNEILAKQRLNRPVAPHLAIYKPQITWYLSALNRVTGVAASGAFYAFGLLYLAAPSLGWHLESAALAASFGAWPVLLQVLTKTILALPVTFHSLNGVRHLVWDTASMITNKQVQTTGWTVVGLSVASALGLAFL
Protocol: (§1) Succinate-ubiquinone oxidoreductase (SQR) inhibition assays were performed on mitochondrial extracts from a panel of strains that were (i) either carrying a unique C-subunit encoding gene (ZtSDHC1, ZtSDHC1_A84I or Zt-SDHC3), or (ii) carrying two C-subunit encoding genes ZtSDHC1 and ZtSDHC3 (Table 1).
(§2) Biomass production, mitochondrial extraction and purification were performed as described in [14]. Succinate: ubiquinone/DCPIP sensitivity tests were performed as described in [14] with minor modification. The different mitochondrial suspensions were adjusted to similar initial velocity (1 OD595nm hour^-1) and inhibitor concentrations ranged between 0.047nM and 50μM with uniform 4x dilution steps (11 concentrations + DMSO control). Calculated absorbance slopes (OD/min) were used for IC50 calculations using GraphPad Prism 6.07 software non-linear curve fitting against log inhibitor concentrations.

[2] = molecular target: SQR of 06STD024 (SDHC / altC) mitochondria (Zymoseptoria tritici, UniProt A0A1X7RQW2+F9X9V6+F9XH52+O42772); experiment: Succinate-quinone (SQR) SDHI sensitivity assay on purified mitochondria, 06STD024; assay type: biochemical; settings: for IC50: mitochondria of field isolate 06STD024, mean of three ± SD
Chain of SQR of 06STD024 (SDHC / altC) mitochondria (A0A1X7RQW2 36-181): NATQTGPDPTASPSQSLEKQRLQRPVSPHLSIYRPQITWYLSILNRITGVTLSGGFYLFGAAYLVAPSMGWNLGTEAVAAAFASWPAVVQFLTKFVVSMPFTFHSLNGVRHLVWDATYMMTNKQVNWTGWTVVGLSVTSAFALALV
Chain of SQR of 06STD024 (SDHC / altC) mitochondria (O42772 19-297): as the sequence (O42772 19-297) above
Chain of SQR of 06STD024 (SDHC / altC) mitochondria (F9X9V6 1-193): as the sequence (F9X9V6 entry or part of it) above
Chain of SQR of 06STD024 (SDHC / altC) mitochondria (F9XH52 44-187): as the sequence (F9XH52 entry or part of it) above
Chain of SQR of 06STD024 (SDHC / altC) mitochondria (F9WWR1 29-643 partner): as the sequence (F9WWR1 entry or part of it) above
Protocol: as §1
(§3) Biomass production, mitochondrial extraction and purification were performed as described in [14]. Succinate: ubiquinone/DCPIP sensitivity tests were performed as described in [14] with minor modification.

[3] = molecular target: SQR (SDHC) of D024 SDHC3 KO mitochondria (Zymoseptoria tritici, UniProt F9X9V6+F9XH52+O42772); experiment: Succinate-quinone (SQR) SDHI sensitivity assay on purified mitochondria, 06STD024 SDHC3 KO; assay type: biochemical; settings: for RF (resistance factor), D024 SDHC3 KO (SDHC): IC50 ratio compared to IPO323 values; for IC50: mitochondria of 06STD024 ZtSDHC3 deletion mutant, mean of three ± SD
Protocol: as §1, §2

[4] = molecular target: altC-SQR (altC) of D024 SDHC1 KO mitochondria (Zymoseptoria tritici, UniProt A0A1X7RQW2+F9X9V6+O42772); experiment: Succinate-quinone (SQR) SDHI sensitivity assay on purified mitochondria, 06STD024 SDHC1 KO; assay type: biochemical; settings: for IC50: mitochondria of 06STD024 ZtSDHC1 deletion mutant (pure altC-SQR), mean of three ± SD
Chain of altC-SQR (altC) of D024 SDHC1 KO mitochondria (A0A1X7RQW2 36-181): as the sequence (A0A1X7RQW2 36-181) above
Chain of altC-SQR (altC) of D024 SDHC1 KO mitochondria (O42772 20-297): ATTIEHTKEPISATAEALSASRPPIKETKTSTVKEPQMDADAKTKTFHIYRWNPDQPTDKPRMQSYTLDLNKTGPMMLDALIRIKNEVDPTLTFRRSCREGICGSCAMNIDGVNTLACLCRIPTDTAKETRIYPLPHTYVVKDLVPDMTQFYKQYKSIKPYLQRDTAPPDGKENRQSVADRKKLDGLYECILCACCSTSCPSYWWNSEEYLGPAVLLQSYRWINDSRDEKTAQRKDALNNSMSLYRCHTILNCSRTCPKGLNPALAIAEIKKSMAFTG
Chain of altC-SQR (altC) of D024 SDHC1 KO mitochondria (F9X9V6 1-193): as the sequence (F9X9V6 entry or part of it) above
Chain of altC-SQR (altC) of D024 SDHC1 KO mitochondria (F9WWR1 41-643 partner): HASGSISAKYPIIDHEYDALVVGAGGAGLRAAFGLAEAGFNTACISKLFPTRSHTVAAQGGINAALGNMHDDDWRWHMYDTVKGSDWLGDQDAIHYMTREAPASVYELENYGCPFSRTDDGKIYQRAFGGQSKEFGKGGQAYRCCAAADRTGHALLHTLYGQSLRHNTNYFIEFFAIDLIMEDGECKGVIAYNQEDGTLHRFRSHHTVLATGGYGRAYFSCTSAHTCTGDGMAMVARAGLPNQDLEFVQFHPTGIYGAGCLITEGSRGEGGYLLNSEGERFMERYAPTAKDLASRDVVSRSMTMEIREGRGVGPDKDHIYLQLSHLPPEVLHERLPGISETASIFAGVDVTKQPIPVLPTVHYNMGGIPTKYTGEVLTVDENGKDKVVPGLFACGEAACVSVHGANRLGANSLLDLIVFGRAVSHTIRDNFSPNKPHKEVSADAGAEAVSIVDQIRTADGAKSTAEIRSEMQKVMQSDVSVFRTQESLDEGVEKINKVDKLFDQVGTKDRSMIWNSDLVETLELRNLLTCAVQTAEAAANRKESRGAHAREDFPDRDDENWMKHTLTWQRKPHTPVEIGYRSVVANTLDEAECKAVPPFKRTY
Protocol: as §1, §3

[5] = tested on: SQR (SDHC / altC) of IPO323 pTet::SDHC3 transformant, induced; experiment: Succinate-quinone (SQR) SDHI sensitivity assay on purified mitochondria, IPO323 pTet::SDHC3 induced; assay type: biochemical, Zymoseptoria tritici; settings: IPO323 pTet::SDHC3 transformant grown in the absence of doxycycline; mean of three ± SD
Protocol: as §1, §3

[6] = molecular target: SQR (SDHC / altC) of IPO323 pTet::SDHC3 transformant, repressed (Zymoseptoria tritici, UniProt A0A1X7RQW2+F9X9V6+F9XH52+O42772); experiment: Succinate-quinone (SQR) SDHI sensitivity assay on purified mitochondria, IPO323 pTet::SDHC3 repressed; assay type: biochemical; settings: for IC50: IPO323 pTet::SDHC3 transformant grown in presence of 30 mg.L^-1 doxycycline, mean of three ± SD
Protocol: as §1, §3

[7] = tested on: Zymoseptoria tritici field and genetically modified strains; experiment: Liquid culture assay for fungicide sensitivity determination; assay type: cell-based; settings: Zymoseptoria tritici, liquid culture sensitivity
Protocol: Sensitivity towards commercial fungicides was determined for a set of 99 SHA-SDHI-naïve Z. tritici field isolates sampled in Europe between 2006 and 2009. The EC50 of these isolates was determined in liquid growth assays and the data obtained compared for each possible pair of SDHI fungicides (cross-resistance (XR) plots, Fig 1). […] Comparative succinate-quinone reductase (SQR) enzyme inhibition tests were performed with mitochondria extracted from a panel of SHA-SDHIs tolerant and sensitive isolates.
In order to characterize in more depth the mechanisms driving sensitivity differences across the isolates, a subset of eight isolates carrying the ZtSDHC3 gene was analyzed for their sensitivity to SDHIs, alt-SDHC expression and splicing patterns. Liquid culture growth sensitivity tests were performed to determine EC50s for this set of isolates towards a wide range of commercial and research SDHIs (S5 Table).
Pre-culture of the inoculum and fungicide sensitivity tests were performed following previously described procedures. Different ranges of inhibitor concentrations were used for population monitoring and for the detailed phenotyping of a selected set of individual field isolates and genetically modified strains. For fungicide sensitivity monitoring of European field populations, final inhibitors concentrations were between 100 mg.L^-1 and 0.0001 mg.L^-1 with uniform 10x dilution steps (7 inhibitor concentrations + DMSO control). For refined sensitivity analysis of a smaller panel of isolates final inhibitor concentrations ranged between 0.5 mM and 0.47 nM with uniform 4x dilution factor steps (11 inhibitor concentrations+ DMSO control).

[8] = IC50 ratio compared to IPO323 values
[9] = read-out: EC50 (nM) Mean, strain 06STD024
[10] = read-out: EC50 (nM) Mean, strain 07STGB009
[11] = read-out: EC50 (nM) Mean, strain 09STD041
[12] = read-out: EC50 (nM) Mean, strain 09STD053
[13] = read-out: EC50 (nM) Mean, strain 09STF011
[14] = read-out: EC50 (nM) Mean, strain 09STF037
[15] = read-out: EC50 (nM) Mean, strain 09STF112
[16] = read-out: EC50 (nM) Mean, strain 09STIR20.3
[17] = read-out: EC50 (nM) Mean, strain Flu21 (SDHC1_A84I)
[18] = read-out: EC50 (nM) Mean, strain IPO323
[19] = read-out: EC50 (nM) Mean, strain IPO94269
[20] = read-out: EC50 (nM) Mean, strain KO_SDHC1_T1
[21] = read-out: EC50 (nM) Mean, strain KO_SDHC1_T3
[22] = read-out: EC50 (nM) Mean, strain KO_SDHC3_T4
[23] = read-out: EC50 (nM) Mean, strain KO_SDHC3_T13
[24] = read-out: EC50 (nM) Mean, strain pTet::SDHC3_I78A_T1
[25] = read-out: EC50 (nM) Mean, strain pTet::SDHC3_I78A_T5
[26] = read-out: EC50 (nM) Mean, strain pTet::SDHC3_I78A_T15
[27] = read-out: EC50 (nM) Mean, strain pTet::SDHC3_I78A_T35
[28] = read-out: EC50 (nM) Mean, strain pTet::SDHC3_T1
[29] = read-out: EC50 (nM) Mean, strain pTet::SDHC3_T2
[30] = read-out: EC50 (nM) Mean, strain pTet::SDHC3_T3
[31] = read-out: EC50 (nM) Mean, strain pTet::SDHC3_T7

SMILES	IC50 [1] [µM]	IC50 [2] [µM]	RF (resistance factor), D024 SDHC3 KO (SDHC) [3]	IC50 [3] [µM]	IC50 [4] [µM]	IC50 [5] [µM]	IC50 [6] [µM]	EC50 [7, 9] [nM]	EC50 [7, 10] [nM]	EC50 [7, 11] [nM]	EC50 [7, 12] [nM]	EC50 [7, 13] [nM]	EC50 [7, 14] [nM]	EC50 [7, 15] [nM]	EC50 [7, 16] [nM]	EC50 [7, 17] [nM]	EC50 [7, 18] [nM]	EC50 [7, 19] [nM]	EC50 [7, 20] [nM]	EC50 [7, 21] [nM]	also measured
CC1=C(C(=O)Nc2ccccc2)SCCO1 [Carboxin]	0.969 ± 0.182	0.731 ± 0.0844	0.8	0.775 ± 0.0945	0.865 ± 0.215	0.763 ± 0.164	1.2 ± 0.085	4620	6340	13200	9370	9620	6840	6780	13200	10200	8550	10800	10400	11200	RF (resistance factor), 06STD024 (SDHC / altC) [2, 8]: 0.8; RF (resistance factor), D024 SDHC1 KO (altC) [4, 8]: 0.9; RF (resistance factor), pTet Repressed (SDHC / altC) [6, 8]: 1.2; EC50 [7, 22]: 20600 nM; EC50 [7, 23]: 19600 nM; EC50 [7, 24]: 7520 nM; EC50 [7, 25]: 12700 nM; EC50 [7, 26]: 8080 nM; EC50 [7, 27]: 15700 nM; EC50 [7, 28]: 6980 nM; EC50 [7, 29]: 7420 nM; EC50 [7, 30]: 6930 nM; EC50 [7, 31]: 8460 nM
Cn1cc(C(=O)NCCc2ccc(Cl)cc2Cl)c(C(F)F)n1 [Compound 1]	0.113 ± 0.0109	0.875 ± 0.159	0.7	0.0794 ± 0.0076	0.94 ± 0.238	0.484 ± 0.0428	0.152 ± 0.0175	14700	15700	6050	6070	7870	4910	8980	4360	49100	3580	2710	125000	78800	EC50 [7, 22]: 9090 nM; EC50 [7, 23]: 7200 nM; EC50 [7, 24]: 4610 nM; EC50 [7, 25]: 7960 nM; EC50 [7, 26]: 3300 nM; EC50 [7, 27]: 4430 nM; EC50 [7, 28]: 33300 nM; EC50 [7, 29]: 35300 nM; EC50 [7, 30]: 22900 nM; EC50 [7, 31]: 35300 nM
C[C@@H](Cc1ccc(Cl)cc1Cl)NC(=O)c1cn(C)nc1C(F)F [Compound 2]	0.0053 ± 0.0006	0.415 ± 0.068	0.7	0.0037 ± 0.0005	0.358 ± 0.0634	0.204 ± 0.0207	0.0156 ± 0.0039	2320	4000	702	367	606	178	786	259	5450	96.4	161	10400	8310	EC50 [7, 22]: 299 nM; EC50 [7, 23]: 309 nM; EC50 [7, 24]: 168 nM; EC50 [7, 25]: 332 nM; EC50 [7, 26]: 150 nM; EC50 [7, 27]: 100 nM; EC50 [7, 28]: 6140 nM; EC50 [7, 29]: 5160 nM; EC50 [7, 30]: 5660 nM; EC50 [7, 31]: 7400 nM
